Assay [1] deals with HDAC3 (Homo sapiens (Human), UniProt O15379). Briefly: HDAC inhibition assay. As to conditions: read-out: IC50 HDAC3.
Experimental: (§2) All histone deacetylases were purchased from BPS Bioscience. […] All the other reagents were purchased from Sigma-Aldrich. Caliper EZ reader II system was used to collect all data. […] Purified HDACs were incubated with 2 μM carboxyfluorescein (FAM)-labeled acetylated or trifluoroacetylated peptide substrate (Broad Substrate A and B respectively) and test compound for 60 minutes at room temperature, in HDAC assay buffer that contained 50 mM HEPES (pH 7.4), 100 mM KCl, 0.01% BSA and 0.001% Tween-20. […] Substrate and product were separated electrophoretically and fluorescence intensity in the substrate and product peaks was determined and analyzed by Labchip EZ Reader. The reactions were performed in duplicate for each sample. IC50 values were automatically calculated by Origin 8 using 4 Parameter Logistic Model. The percent inhibition was plotted against the compound concentration, and the IC50 value was determined from the logistic dose-response curve fitting by Origin 8.0 software.
Assay [2] concerns the target HDAC1 (Homo sapiens (Human), UniProt Q13547). Briefly: HDAC inhibition assay. As to conditions: read-out: IC50 HDAC1.
Experimental: as §2
Assay [3] addresses HDAC2 (Homo sapiens (Human), UniProt Q92769). Briefly: HDAC inhibition assay. The class given is biochemical. The text has this: (§1) All histone deacetylases were purchased from BPS Bioscience. […] All the other reagents were purchased from Sigma-Aldrich.
In assay [4] the target is HDAC4 (Homo sapiens (Human), UniProt P56524). Put plainly: HDAC inhibition assay. As to conditions: read-out: IC50 HDAC4.
Experimental: as §2
Assay [5] addresses HDAC5 (Homo sapiens (Human), UniProt Q9UQL6). Put plainly: HDAC inhibition assay. The settings on record: read-out: IC50 HDAC5.
Experimental: as §2
Assay [6] concerns the target HDAC6 (Homo sapiens (Human), UniProt Q9UBN7). Put plainly: HDAC inhibition assay. The class given is biochemical.
Text: as §1

Assay [7] concerns the target HDAC8 (Homo sapiens (Human), UniProt Q9BY41). Briefly: HDAC inhibition assay. The format is biochemical.
Text: as §1

For assay [8], the target named is HDAC9 (Homo sapiens (Human), UniProt Q9UKV0). Briefly: HDAC inhibition assay. The settings on record: read-out: IC50 HDAC9.
Sequence of HDAC9 (Q9UKV0 whole entry): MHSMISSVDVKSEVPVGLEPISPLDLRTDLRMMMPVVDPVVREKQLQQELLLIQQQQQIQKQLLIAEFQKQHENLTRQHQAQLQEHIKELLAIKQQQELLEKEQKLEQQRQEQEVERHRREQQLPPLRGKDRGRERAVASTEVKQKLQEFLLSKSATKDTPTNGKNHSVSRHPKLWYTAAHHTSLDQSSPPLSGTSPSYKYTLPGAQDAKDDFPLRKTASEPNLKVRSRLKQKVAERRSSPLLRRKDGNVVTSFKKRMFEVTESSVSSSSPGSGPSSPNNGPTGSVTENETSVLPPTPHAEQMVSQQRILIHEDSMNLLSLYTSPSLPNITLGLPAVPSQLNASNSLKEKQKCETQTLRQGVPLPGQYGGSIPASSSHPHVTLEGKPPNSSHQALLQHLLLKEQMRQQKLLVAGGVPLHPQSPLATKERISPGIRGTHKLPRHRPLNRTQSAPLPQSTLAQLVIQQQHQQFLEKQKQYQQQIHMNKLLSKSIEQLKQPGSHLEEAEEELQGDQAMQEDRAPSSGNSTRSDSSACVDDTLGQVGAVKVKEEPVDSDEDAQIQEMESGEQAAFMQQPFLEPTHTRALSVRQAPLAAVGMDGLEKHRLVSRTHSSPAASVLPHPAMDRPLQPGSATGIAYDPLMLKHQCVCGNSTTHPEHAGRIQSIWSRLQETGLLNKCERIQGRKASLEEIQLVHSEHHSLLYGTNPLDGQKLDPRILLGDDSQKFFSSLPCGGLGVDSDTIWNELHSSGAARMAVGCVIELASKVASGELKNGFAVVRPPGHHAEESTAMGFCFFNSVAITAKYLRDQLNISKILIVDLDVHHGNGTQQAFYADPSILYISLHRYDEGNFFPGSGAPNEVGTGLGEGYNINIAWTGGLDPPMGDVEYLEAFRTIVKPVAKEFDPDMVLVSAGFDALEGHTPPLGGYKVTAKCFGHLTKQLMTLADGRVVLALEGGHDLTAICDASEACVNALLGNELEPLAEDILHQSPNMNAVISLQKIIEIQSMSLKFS
Experimental: as §2
For assay [9], the system named is histone deacetylases. Put plainly: Baboon PET/MR imaging with [11C]CN133. The format is in vivo, baboon (Papio anubis). The settings on record: for VT (Ichese MAI), CN147 blocked / VT (Logan Plot), CN147 blocked: [11C]CN133 VT after CN147 0.5 mg/kg intravenous; for VT (Ichese MAI), % Difference / VT (Logan Plot), % Difference: baseline vs CN147 blocked. The method, then: A female Papio Anubis baboon, deprived of food for 12 hours prior to the study, was administered intramuscular ketamine (10 mg/kg) and intubated. For maintenance of anesthesia throughout the study, the baboon was provided 1%-4% isoflurane (Forane) in a mixture of medical oxygen and nitrogen. The baboon was catheterized antecubitally for radiotracer injection and a radial arterial line was placed for metabolite analysis. MR-PET images were acquired in a BiographmMR scanner (Siemens, Munich, Germany), and PET compatible 8-channel coil arrays for non-human primate brain imaging with a PET resolution of 5 mm and field of view of 59.4 cm and 25.8 cm (transaxial and axial, respectively). Dynamic PET image acquisition was initiated followed by administration of the radiotracer in a homogenous solution of 10% ethanol and 90% isotonic saline. An […] sequence began after 30 minutes of the baseline scan for anatomic coregistration. […] Both scans were carried out in the same animal on the same day, separated by 2.5 hours. In both scans, 4-5 mCi of [^11C]CN133 was administered to the baboon. Dynamic data from the PET scans were recorded in list mode and corrected for attenuation. Baboon data were reconstructed using a 3D-OSEM method resulting in a full width at half-maximum resolution of 4 mm.
Volumes of interest (VOIs) were drawn manually as spheres in brain regions guided by high resolution MR structural images and summed PET data, with a radius no less than 4 mm. A common VOI mask was applied to both baboon scans. Time-activity curves (TACs) were exported in terms of decay corrected activity per unit volume at specified time points with gradually increasing intervals. The TACs were expressed as percent injected dose per unit volume for analysis.
Arterial samples collected during imaging from the baboon were centrifuged to obtain plasma, which was then removed and placed in an automated gamma counter that was calibrated to the PET scanner. Metabolite analysis was conducted on a custom automated robot fitted with Phenomenex SPE Strata-X 500 mg solid phase extraction cartridges that were primed with ethanol (2 mL) and deionized water (20 mL). Protein precipitation was achieved by addition of plasma (300 μL) to acetonitrile (300 μL), which was centrifuged for 1 minute to obtain protein-free plasma (PFP). 300 μL of PFP/acetonitrile solution was diluted into deionized water (3 mL), loaded onto the C18 cartridge, and removed of polar metabolites with 100% water. Next, a series of extractions were performed using water and acetonitrile in quantities: 95:5, 90:10, 85:15, 80:20, 70:30, 60:40, 30:70 and 100% acetonitrile at a volume of 4 mL. A control experiment was performed before metabolite analysis to determine the retention of the parent compound by injection of a small amount of [^11C]CN133 onto a test series of extraction cartridges. Each sample was counted in a WIZARD2 Automatic Gamma Counter to determine the presence of radiolabeled metabolites.
CN147 blocks ˜40% of [^11C]CN133 binding in NHP whole brain and in cerebellum. Plasma-normalized data were evaluated by volume of interest analysis (VOI) at the whole brain level and at level of the cerebellum. VOI data were then applied to distribution volume (VT) data analysis by two graphical methods using PMOD software, tabulated in Tables A and B below. Logan Plot and Ichese MAI methods were clarified from previous NHP imaging analyses to provide an accurate VT estimate (+/− standard error) from data beginning 35 min after injection of radiotracer (t*=35 min) until the end of the scan (t=80min).

The target of assay [10] is HDAC7 (Homo sapiens (Human), UniProt Q8WUI4). Put plainly: HDAC inhibition assay. As to conditions: read-out: IC50 HDAC7.
Experimental: as §2

Sequence of HDAC3 (O15379 whole entry): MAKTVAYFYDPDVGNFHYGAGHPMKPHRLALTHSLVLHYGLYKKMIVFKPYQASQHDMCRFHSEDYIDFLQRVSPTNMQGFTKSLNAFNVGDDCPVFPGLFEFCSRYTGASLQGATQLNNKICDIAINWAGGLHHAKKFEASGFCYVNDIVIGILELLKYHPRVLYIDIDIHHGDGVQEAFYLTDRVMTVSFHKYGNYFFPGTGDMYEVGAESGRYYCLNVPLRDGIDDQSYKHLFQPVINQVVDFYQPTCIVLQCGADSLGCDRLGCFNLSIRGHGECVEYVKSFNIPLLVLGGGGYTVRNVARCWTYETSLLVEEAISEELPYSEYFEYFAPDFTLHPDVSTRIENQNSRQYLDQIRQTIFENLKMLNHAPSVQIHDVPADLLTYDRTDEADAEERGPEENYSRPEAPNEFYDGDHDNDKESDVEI
Sequence of HDAC3 (Q9Y618 395-489 partner): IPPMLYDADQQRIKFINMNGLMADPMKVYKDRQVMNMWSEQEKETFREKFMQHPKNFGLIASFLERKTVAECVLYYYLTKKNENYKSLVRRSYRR
Sequence of HDAC5 (Q9UQL6 whole entry): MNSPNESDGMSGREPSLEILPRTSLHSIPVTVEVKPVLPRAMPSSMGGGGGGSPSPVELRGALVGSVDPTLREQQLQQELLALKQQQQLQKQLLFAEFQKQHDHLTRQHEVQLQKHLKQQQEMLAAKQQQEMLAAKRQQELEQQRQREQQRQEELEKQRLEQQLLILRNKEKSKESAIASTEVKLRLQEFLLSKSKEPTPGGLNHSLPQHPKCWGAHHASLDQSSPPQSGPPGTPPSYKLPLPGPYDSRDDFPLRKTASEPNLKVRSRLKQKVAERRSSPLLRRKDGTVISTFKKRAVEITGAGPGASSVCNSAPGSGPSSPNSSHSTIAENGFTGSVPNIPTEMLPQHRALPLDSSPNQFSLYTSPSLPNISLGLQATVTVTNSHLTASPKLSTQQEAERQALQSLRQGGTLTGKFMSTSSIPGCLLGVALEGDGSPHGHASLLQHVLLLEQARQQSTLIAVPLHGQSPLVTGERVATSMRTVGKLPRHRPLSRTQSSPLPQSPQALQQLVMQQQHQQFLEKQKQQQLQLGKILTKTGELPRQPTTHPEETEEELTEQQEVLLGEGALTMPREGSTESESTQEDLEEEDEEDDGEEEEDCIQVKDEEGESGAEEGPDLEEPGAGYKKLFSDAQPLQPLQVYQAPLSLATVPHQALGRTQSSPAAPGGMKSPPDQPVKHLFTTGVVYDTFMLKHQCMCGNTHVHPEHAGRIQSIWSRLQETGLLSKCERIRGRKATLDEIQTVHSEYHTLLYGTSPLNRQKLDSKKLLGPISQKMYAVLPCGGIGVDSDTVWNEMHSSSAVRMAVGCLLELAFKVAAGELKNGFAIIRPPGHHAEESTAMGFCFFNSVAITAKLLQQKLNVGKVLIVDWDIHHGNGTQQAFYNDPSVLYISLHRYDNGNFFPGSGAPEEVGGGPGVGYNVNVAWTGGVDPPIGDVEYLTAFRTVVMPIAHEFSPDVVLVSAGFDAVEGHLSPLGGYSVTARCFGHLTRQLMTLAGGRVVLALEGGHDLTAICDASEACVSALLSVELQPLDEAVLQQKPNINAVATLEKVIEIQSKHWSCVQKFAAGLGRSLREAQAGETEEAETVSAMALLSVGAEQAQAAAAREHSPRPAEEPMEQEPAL
Sequence of HDAC1 (Q13547 whole entry): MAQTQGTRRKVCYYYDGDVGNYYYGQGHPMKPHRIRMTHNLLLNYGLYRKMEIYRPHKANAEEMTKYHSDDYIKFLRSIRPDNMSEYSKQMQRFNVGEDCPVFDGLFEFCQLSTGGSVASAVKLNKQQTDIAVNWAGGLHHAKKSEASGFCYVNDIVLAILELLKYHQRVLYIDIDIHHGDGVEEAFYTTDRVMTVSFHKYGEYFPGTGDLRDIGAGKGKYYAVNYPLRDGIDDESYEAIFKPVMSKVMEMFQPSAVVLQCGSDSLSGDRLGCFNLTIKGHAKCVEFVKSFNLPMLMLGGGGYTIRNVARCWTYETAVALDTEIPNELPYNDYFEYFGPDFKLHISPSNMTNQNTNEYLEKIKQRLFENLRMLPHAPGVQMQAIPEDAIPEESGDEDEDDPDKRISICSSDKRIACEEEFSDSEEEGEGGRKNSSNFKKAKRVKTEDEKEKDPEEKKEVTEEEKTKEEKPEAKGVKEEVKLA
Sequence of HDAC8 (Q9BY41 whole entry): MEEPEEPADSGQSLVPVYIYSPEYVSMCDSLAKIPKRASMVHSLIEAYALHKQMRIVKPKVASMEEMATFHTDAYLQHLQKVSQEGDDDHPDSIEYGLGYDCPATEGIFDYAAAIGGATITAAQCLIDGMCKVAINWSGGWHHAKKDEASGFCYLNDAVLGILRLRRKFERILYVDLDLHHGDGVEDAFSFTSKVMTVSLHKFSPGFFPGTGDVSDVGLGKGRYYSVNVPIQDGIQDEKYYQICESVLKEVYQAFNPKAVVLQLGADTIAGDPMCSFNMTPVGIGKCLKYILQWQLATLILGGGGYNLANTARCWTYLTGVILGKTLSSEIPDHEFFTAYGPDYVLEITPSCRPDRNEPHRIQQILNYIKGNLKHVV
Sequence of HDAC6 (Q9UBN7 whole entry): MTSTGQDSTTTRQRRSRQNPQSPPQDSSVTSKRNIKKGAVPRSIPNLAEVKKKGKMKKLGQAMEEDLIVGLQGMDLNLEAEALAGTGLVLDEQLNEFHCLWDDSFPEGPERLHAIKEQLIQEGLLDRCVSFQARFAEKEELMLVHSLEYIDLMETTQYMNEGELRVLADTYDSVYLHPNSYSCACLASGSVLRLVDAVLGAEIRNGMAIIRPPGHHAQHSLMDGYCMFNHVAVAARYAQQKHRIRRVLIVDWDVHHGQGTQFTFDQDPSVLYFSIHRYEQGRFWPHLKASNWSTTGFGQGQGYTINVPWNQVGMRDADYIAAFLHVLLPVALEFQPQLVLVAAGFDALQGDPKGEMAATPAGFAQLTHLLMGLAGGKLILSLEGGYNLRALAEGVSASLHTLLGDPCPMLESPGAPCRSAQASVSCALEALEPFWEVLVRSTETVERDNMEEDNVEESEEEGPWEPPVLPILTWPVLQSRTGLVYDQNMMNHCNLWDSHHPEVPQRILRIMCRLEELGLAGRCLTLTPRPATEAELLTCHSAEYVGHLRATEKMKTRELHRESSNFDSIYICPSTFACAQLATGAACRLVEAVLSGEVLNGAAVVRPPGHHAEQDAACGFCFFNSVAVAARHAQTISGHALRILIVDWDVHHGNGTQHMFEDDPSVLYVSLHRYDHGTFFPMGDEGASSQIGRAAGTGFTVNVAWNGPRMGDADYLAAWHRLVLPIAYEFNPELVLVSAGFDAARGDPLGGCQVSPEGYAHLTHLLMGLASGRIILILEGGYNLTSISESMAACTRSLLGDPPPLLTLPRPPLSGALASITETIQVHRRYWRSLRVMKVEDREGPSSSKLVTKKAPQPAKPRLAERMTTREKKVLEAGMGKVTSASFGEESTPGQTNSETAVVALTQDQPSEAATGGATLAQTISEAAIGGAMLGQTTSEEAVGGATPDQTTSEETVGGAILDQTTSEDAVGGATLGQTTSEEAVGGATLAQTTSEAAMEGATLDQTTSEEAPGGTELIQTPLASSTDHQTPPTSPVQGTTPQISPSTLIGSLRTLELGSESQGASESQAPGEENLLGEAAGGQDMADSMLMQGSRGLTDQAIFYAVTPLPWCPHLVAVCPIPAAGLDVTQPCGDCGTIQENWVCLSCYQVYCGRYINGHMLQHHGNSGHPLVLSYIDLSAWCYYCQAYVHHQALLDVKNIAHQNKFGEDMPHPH

For `CN(C)CCOc1ccc2c(c1)C(c1ccc(C(=O)NO)cc1)=Nc1ccccc1O2` [CN56], the values for the IC50 in assay [1], in assay [2] and in assay [3] were 97.8 nM, 270 nM and 160 nM, respectively.
`CN(CCc1ccccc1)S(=O)(=O)c1cccc(/C=C/C(=O)NO)c1` [CN89]: the IC50 – broadly, the concentration that inhibits the measured activity by half – in assay [4] was 500 nM; in assay [1], 3.4 nM; in assay [2] it was 5 nM; in assay [5], more than 10000 nM; in assay [6] it was 5 nM; in [7], 150 nM. For the same compound, the results for the IC50 in assay [3] and in assay [8] were 32 nM and more than 10000 nM, respectively.
In the case of `CN(Cc1ccc(/C=C/C(=O)Nc2ccccc2N)cc1)CC12CC3CC(CC(C3)C1)C2` [CN147], in assay [9] (Cerebellum VOI), the “VT (Ichese MAI), CN147 blocked” value came out at 11.68 ± 8.42; the “VT (Logan Plot), CN147 blocked” value is listed as 11.59 ± 3.37; the “VT (Ichese MAI), % Difference” value was 39.95%; the “VT (Logan Plot), % Difference” value is reported as 39.89%. Also, in assay [9] (NHP whole brain and cerebellum), the “blocking of [11C]CN133 binding” value is approximately 40%. Also, in [9] (Whole Brain VOI), the “VT (Ichese MAI), CN147 blocked” value came to 8.92 ± 9.26; the “VT (Logan Plot), CN147 blocked” value stood at 8.85 ± 3.06; the “VT (Ichese MAI), % Difference” value was 39.11%; the “VT (Logan Plot), % Difference” value turned out to be 38.80%.
As to `CN(Cc1ccc(/C=C/C(=O)NO)cc1F)CC12CC3CC(CC(C3)C1)C2` [CN149], the IC50 is 20300 nM in assay [4]; 0.76 nM in assay [1]; 0.78 nM in assay [2]; 4750 nM in [5]; more than 50000 nM in assay [10]; 11.7 nM in [6]. Moreover, the IC50 in [7] and in assay [8] was more than 50000 nM throughout.
On to `CCCCN(Cc1ccc(C(=O)NO)cc1)C(=O)Nc1ccccc1OC` [CN165], for which the half-maximal inhibitory concentration (IC50) in assay [1] was found to be 143 nM; in [2], 96.7 nM; in assay [6] it was 2.13 nM; in assay [7] it was 493 nM; in assay [3] it was 307 nM.
As to `CNc1ccc(C(=O)NCCCCC(=O)NO)cc1` [CN51], the 50% inhibitory concentration (IC50) in assay [1] was determined as 84.5 nM; in assay [2] it was 106 nM; in assay [3], 477 nM.
The matching figures for `CN(C)c1ccc(C(=O)NCCCCCCC(=O)NO)cc1` [CN52]: 4.3 nM, 7.3 nM and 20.7 nM.
For `O=C(/C=C/c1ccc(CNCC23CC4CC(CC(C4)C2)C3)cc1)NO` [CN132], the IC50 was 1.2 nM in [1]; 0.95 nM in assay [2]; more than 20000 nM in assay [10]; 1.7 nM in assay [6]; more than 10000 nM in assay [7]; 7.8 nM in [3]. Besides, the IC50 in [8] was more than 10000 nM.
With `COc1ccc2c(c1)C(=O)N(CCCCCC(=O)NO)c1ccccc1S2` [CN112], the concentration for half-maximal inhibition (IC50) is more than 10000 nM in assay [4]; 1.1 nM in assay [1]; 1.2 nM in assay [2]; more than 20000 nM in assay [5]; 2.3 nM in [6]; more than 70000 nM in [7]. Also, the IC50 in assay [3] stood at 4 nM; in [8], 1470 nM.
Take `CN(Cc1ccc(/C=C/C(=O)NO)cc1F)CC1CCCCC1` [CN167]: the concentration for half-maximal inhibition (IC50) in [1] was 4.83 nM; in [2], 5.43 nM; in assay [6] it was 18.7 nM; in [7], 1810 nM; in [3], 40 nM.
Consider `O=C(/C=C/c1ccc(CNCC2CCCCC2)c(F)c1)NO` [CN166], for which the IC50 was determined as 0.54 nM in assay [1]; 1.64 nM in assay [2]; 11.7 nM in assay [6]; 725 nM in assay [7]; 14.2 nM in [3].
Turning to `CN(C)Cc1ccc(/C=C/C(=O)NO)cc1` [CN145], the 50% inhibitory concentration (IC50) in assay [1] was 9240 nM; in [2], more than 50000 nM; in assay [5] it was more than 70000 nM; in assay [6], 6820 nM.
In the case of `CNc1ccc(C(=O)NCCCCCCC(=O)NO)cc1` [CN53], the IC50 in [1] is 5.7 nM; in assay [2] it was 6.1 nM; in [3], 11.9 nM.

(Values after US10188756B2, “Imaging histone deacetylases with a radiotracer using positron emission tomography” (THE GENERAL HOSPITAL CORPORATION, priority 2013, dated 2019).)
